For assay [1], the system named is primary rat AEC. Nature of the assay: Angiotensin II-induced apoptosis in primary rat AEC (nuclear fragmentation, PI). The assay is classed as cell-based. The settings on record: ANGII 5.0 uM; saralasin 50 ug/ml, lisinopril 500 ng/ml. The text has this:
Cell Culture. The human lung adenocarcinoma cell line A549 was obtained from American Type Culture Collection and cultured in Ham's F12 medium supplemented with 10% fetal bovine serum (FBS). Primary alveolar epithelial cells were isolated from adult male Wistar rats as described in Uhal et al., Am. J. Physiol. Suppl. (Oct.) 261:110-117 (1991) and Uhal et al., Am. J. Physiol. 269:L819-L828 (1995). The primary cells were studied at day two of culture, a time at which they are type II cell-like by accepted morphologic and biochemical criteria, see Uhal, Am. J. Physiol. 272:L1031-L1045 (1997). […] J. Physiol. Suppl. (October) 261:110-117 (1991). All cells were seeded in 24-well or 6-well chambers, and all experiments were conducted at subconfluent densities of 80-90% in serum-free Ham's F12 medium. Test reagents were diluted with Ham's F12 medium and were applied for 20 h at 37° C. in a 5% CO2 incubator.
Detection of Apoptosis. Detection of apoptotic cells with propidium iodide (PI) was conducted as described in Uhal, et al., Am. J. Physiol. 275:L1013-1017 (1998) following digestion of ethanol-fixed cells with DNAse-free RNAse in PBS containing 5 ug/ml PI. Assay of Annexin V binding by flow cytometry was performed essentially as described for human lung fibroblasts in Uhal, et al., Am. J. Physiol. 275:L998-L1005 (1998) after trypsinization of cells from culture vessels. Assay of Caspase-3 activity was performed on viable suspension cultures as reported in Uhal, et al., Am. J. Physiol. 275:L1013-1017 (1998). In all assays, detached cells were retained by centrifugation of the culture vessels during fixation with 70% ethanol, or by retention of culture media and recovery by centrifugation before assay.
For microscopy, cells were cultured on glass cover slips, incubated with test reagents and fixed with 70% ethanol. The fixed cells were immunolabeled overnight at 4° C. with monoclonal antibodies to cytokeratins 7 and 19 (Chemicon International, Temecula, Calif.), and then for one hour at 37° C. with anti-mouse IgG-rhodamine and DNAse-free RNAse (Boehringer Mannheim, Indianapolis, Ind.) The cover slips were then rinsed in distilled water three times and mounted under Fluoromount Solution (Southern Biotechnology Associates, Birmingham, Ala.) containing 5 ug/ml propidium iodide. Photomicroscopy was performed as described in Uhal, et al., Am. J. Physiol. 275:L1013-1017 (1998).
Apoptosis in alveolar epithelial cells was quantitated by fluorescence detection of chromatin condensation and nuclear fragmentation in alcohol-fixed cells stained with propidium iodide. See Uhal, et al., Am. J. Physiol. 275:L1013-1017 (1998). […] After 20 h, the culture vessel was centrifuged to retain detached cells and labeled with anticytokeratin antibodies and propidium iodide. […] Double labeling with PI and monoclonal antibodies to cytokeratins 7 and 19 identified cells with both apoptotic nuclear morphology and positive anticytokeratin immunoreactivity.

A further assay concerns A549 cells. Particulars: for inhibition of amiodarone-induced apoptosis: captopril 500 ng/ml, saralasin 50 ug/ml, Losartan 5 pg/ml. As for the experimental part: (§1) The human lung adenocarcinoma cell line A549 (ATCC) was cultured in Ham's F12 medium supplemented with 10% fetal bovine serum (FBS). Primary alveolar epithelial cells were isolated from adult male Wistar rats. The primary cells were studied at day two of culture, a time at which they are type II cell-like by accepted morphologic and biochemical criteria. […] All cells were seeded in 24-well or 6-well chambers, and all experiments were conducted at subconfluent densities of 80-90% in serum-free Ham's F12 medium. Test reagents were diluted with Ham's F12 medium and were applied for 20 hours at 37C. in a 5% CO2 incubator.
(§2) Apoptotic cells were detected using propidium iodide (PI) following digestion of ethanol-fixed cells with DNAse-free RNAse in PBS containing 5 ug/ml PI. […] In replicate culture vessels, necrosis was detected as the loss of exclusion of PI after application of the vital dye directly to the cell culture medium at 5 ug/ml final concentration. Red fluorescent (PI-POSITIVE) cells (>570 nm) were scored over the subsequent hour as a percentage of the total cells in any given field. A minimum of 4 separate fields were scored in each of three separate culture vessels per experiment condition; all experiments were performed at least twice and the data were compiled. Although all necrotic cells are PI-positive, some apoptotic cells may also take up the dye but these comprise a minor fraction of the total dead cell population.
(§3) In all assays, detached cells were retained by centrifugation of the culture vessel at 300×g for 10 minutes with a centrifuge rotor designed for culture plates. For detection of necrosis (dye exclusion of PI), the PI was added directly to the cell culture medium immediately before centrifugation of the culture vessel. For detection of apoptosis, ethanol was added directly to the cell culture medium to a final concentration of 70% immediately before the centrifugation. Afterward, the ethanol was carefully removed and the total cell population (attached plus sedimented detached cells) were stained with PI as described above.

Assay [2] has as its system primary rat AEC. Particulars: for inhibition of amiodarone-induced apoptosis: captopril 500 ng/ml, saralasin 50 ug/ml, Losartan 5 pg/ml, amiodarone 2.5 ug/ml for chelerythrine, orthovanadate. The protocol:
as §1, §2, §3

Assay [3] deals with primary rat AEC. As to the kind of experiment: Amiodarone-induced net cell loss in primary rat AEC cultures. The assay is classed as cell-based. Particulars: primary rat AEC.
Description: Primary alveolar epithelial cells were isolated from adult male Wistar rats. The primary cells were studied at day two of culture, a time at which they are type II cell-like by accepted morphologic and biochemical criteria. All primary cell preparations were of better than 90% purity assessed by acridine orange staining. All cells were seeded in 24-well or 6-well chambers, and all experiments were conducted at subconfluent densities of 80-90% in serum-free Ham's F12 medium. Test reagents were diluted with Ham's F12 medium and were applied for 20 hours at 37C. in a 5% CO2 incubator.
Importantly, unattached cells were recovered and included in the analyses, and thus the data represent true loss of cells rather than simple detachment from the substratum.

Where a SMILES comes first, the peptide text is derived from it. The star is where a group is joined. Cbz = O=C(OCc1ccccc1)*; CH2F = FC*

Take `CCc1nc2c(C)cc(C)nc2n1Cc1ccc(-c2ccccc2-c2nn[nH]n2)cc1` [L158809]: in the assay with primary rat AEC [1], the “inhibition of ANGII-induced apoptosis of primary rat AEC” value (“inhibition … of primary rat AEC” below) is on record as “could block”.

`COc1ccc2c(c1OCc1ccccc1)C[C@@H](C(=O)O)N(C(=O)C(c1ccccc1)c1ccccc1)C2` [PD126055]: the “inhibition … of primary rat AEC” value in the assay on primary rat AEC [1] is on record as “unable to significantly inhibit”.

On to `COC(=O)C[C@H](NC(=O)[C@H](C)NC(=O)[C@@H](NC(=O)OCc1ccccc1)C(C)C)C(=O)CF` [ZVAD-fmk, N-benzylcarboxy-Val-Ala-Asp-[O-Me]-CH2F] (Cbz-Val-Ala-Asp(OMe)-CH2F), for which the entries for the “inhibition of apoptosis in response to amiodarone” value with A549 cells (A549) and in the assay with primary rat AEC [2] (primary rat AEC) were 81% and 97%, respectively. In the assay with primary rat AEC [3], the “effect on amiodarone-induced decrease in total cell number” value (shortened to “effect on amiodarone-induced decrease”) is listed as “significantly inhibited”. Moreover, in the assay on primary rat AEC [3], the “net cell loss abrogated” value was 75%.

Regarding `C[C@H](CS)C(=O)N1CCC[C@H]1C(=O)O` [captopril], the “inhibition of amiodarone-induced apoptosis” value in the assay with A549 cells and in the assay with primary rat AEC [2] was “inhibited” each time. In addition, the “effect on amiodarone-induced decrease” value with primary rat AEC [3] is reported as “significantly inhibited”.

As for `NCCCC[C@H](N[C@@H](CCc1ccccc1)C(=O)O)C(=O)N1CCC[C@H]1C(=O)O` [lisinopril], the “inhibition … of primary rat AEC” value in the assay on primary rat AEC [1] is “did not block”.

Consider `CNCC(=O)N[C@@H](CCCN=C(N)N)C(=O)N[C@H](C(=O)N[C@@H](Cc1ccc(O)cc1)C(=O)N[C@H](C(=O)N[C@@H](Cc1cnc[nH]1)C(=O)N1CCC[C@H]1C(=O)N[C@@H](C)C(=O)O)C(C)C)C(C)C` [saralasin], for which the “inhibition … of primary rat AEC” value in the assay on primary rat AEC [1] is “completely inhibited”. In addition, the “inhibition of amiodarone-induced apoptosis” value in the assay with A549 cells and with primary rat AEC [2] was “inhibited” in each case. Moreover, the “effect on amiodarone-induced decrease” value in the assay with primary rat AEC [3] was “significantly inhibited”.

These data come from US20030113330A1, “Methods for treating pulmonary fibrosis” (priority 1999, published 2003).
